Experiment in all cases: ≥ marks a high value that may be exact or a test limit, other limits are often not marked, values filed in µg/mL are converted to µM
Experiment [1] deals with Bacillus cereus.
The test system of experiment [2] is Escherichia coli.
Experiment [3] concerns Escherichia coli ATCC 25922.
Experiment [4] deals with Pseudomonas aeruginosa ATCC 27853.
Experiment [5] concerns Candida albicans ATCC 90028.
Experiment [6] relates to Staphylococcus aureus ATCC 29213.
In experiment [7] the test system is Staphylococcus aureus.
The subject of experiment [8] is Candida albicans.
Experiment [9] deals with Staphylococcus aureus ATCC 25923.
For experiment [10], the system named is Candida albicans ATCC 10231.
Experiment [11] concerns Klebsiella pneumoniae.
Experiment [12] deals with Bacillus subtilis.
The test system of experiment [13] is Bacillus subtilis ATCC 6633.
The test system of experiment [14] is Klebsiella pneumoniae ATCC 700603.
The test system of experiment [15] is Staphylococcus epidermidis ATCC 12228.

This is an account of results in DBAASP.

What is called MIC is the smallest concentration in the dilution series that meets the test's criterion for growth inhibition. Low values mean inhibition by little substance, high ones a need for much substance.

Molecules are shown by their SMILES. Converted amounts (≈) assume the structure as drawn.

For the molecule `CC[C@H](C)[C@H](NC(=O)[C@@H](NC(=O)[C@H](CO)NC(=O)[C@@H]1CCCN1C(=O)[C@@H](NC(=O)[C@@H](NC(=O)[C@H](CCCCN)NC(=O)[C@H](CO)NC(=O)[C@H](C)NC(=O)[C@@H](NC(=O)CNC(=O)[C@H](Cc1ccccc1)NC(=O)[C@@H](NC(=O)[C@@H](NC(=O)[C@@H](N)CO)C(C)C)C(C)C)C(C)C)C(C)C)C(C)C)C(C)C)C(=O)NCC(=O)N[C@@H](CCCCN)C(=O)N[C@H](C(=O)N[C@@H](CCCCN)C(=O)N[C@H](C(=O)O)[C@@H](C)O)C(C)C` [SVVFGVASKVVPSVIGKVKT], the results for the minimum inhibitory concentration (MIC) in experiment [1] and in experiment [2] were not below 128 µM and more than 128 µM, respectively.
With `CC[C@H](C)[C@H](NC(=O)[C@H](CCCN=C(N)N)NC(=O)[C@H](CCC(N)=O)NC(=O)[C@@H](NC(=O)[C@@H](NC(=O)[C@H](CCCN=C(N)N)NC(=O)[C@@H](N)CCCCN)[C@@H](C)CC)C(C)C)C(=O)N[C@@H](CCCCN)C(=O)N[C@@H](CC(=O)O)C(=O)N[C@@H](Cc1ccccc1)C(=O)N[C@@H](C)C(=O)N[C@@H](CCCN=C(N)N)C(=O)O` [KRIVQRIKDFAR], the MIC in experiment [3] is 20 µM (≈ 30.6 µg/mL); in experiment [4], 40 µM (≈ 61.2 µg/mL); in experiment [5], not below 40 µM; in [6] it was 40 µM (≈ 61.2 µg/mL).
For the molecule `CC[C@H](C)[C@H](NC(=O)CNC(=O)[C@H](CCCCN)NC(=O)[C@@H](NC(=O)[C@H](CC(C)C)NC(=O)[C@H](CO)NC(=O)CNC(=O)[C@H](CC(C)C)NC(=O)[C@H](CC(=O)O)NC(=O)[C@H](C)NC(=O)[C@H](CCCCN)NC(=O)[C@H](CC(C)C)NC(=O)[C@@H](NC(=O)[C@H](CCC(=O)O)NC(=O)[C@H](CCCCN)NC(=O)[C@H](Cc1ccccc1)NC(=O)CN)C(C)C)C(C)C)C(=O)N[C@@H](C)C(=O)N[C@@H](C)C(=O)N[C@@H](Cc1cnc[nH]1)C(=O)N[C@H](C(=O)N[C@@H](C)C(=O)N[C@@H](CC(N)=O)C(N)=O)C(C)C` [GFKEVLKADLGSLVKGIAAHVAN], the minimal inhibitory concentration (MIC) is 214 µM (≈ 500 µg/mL) in experiment [2], 214 µM (≈ 500 µg/mL) in experiment [7] and more than 400 µM in experiment [8].
With `CC[C@H](C)[C@H](NC(=O)[C@H](C)NC(=O)CNC(=O)[C@H](CC(C)C)NC(=O)[C@@H](N)Cc1ccccc1)C(=O)N[C@@H](C)C(=O)NCC(=O)N[C@H](C(=O)N[C@@H](C)C(=O)N[C@@H](C)C(=O)N[C@@H](CCCCN)C(=O)N[C@@H](Cc1ccccc1)C(=O)N[C@@H](CC(C)C)C(=O)N1CCC[C@H]1C(=O)N[C@@H](CCCCN)C(=O)N[C@H](C(=O)N[C@@H](Cc1ccccc1)C(=O)N[C@H]1CSSC[C@@H](C(=O)O)NC(=O)[C@H](CCCCN)NC(=O)[C@H](CCCCN)NC(=O)[C@H]([C@@H](C)O)NC(=O)[C@H]([C@@H](C)CC)NC(=O)[C@H](Cc2ccccc2)NC1=O)C(C)C)C(C)C` [FLGAIAGVAAKFLPKVFCFITKKC], the MIC in [3] amounted to 25 µM (≈ 64.3 µg/mL); in experiment [9], 3 µM (≈ 7.71 µg/mL); in experiment [5], 3 µM (≈ 7.71 µg/mL).
On to `CC[C@H](C)[C@H](NC(=O)[C@H](CC(C)C)NC(=O)[C@H](Cc1cnc[nH]1)NC(=O)[C@@H](NC(=O)[C@@H](NC(=O)[C@H](C)NC(=O)CNC(=O)[C@H](CC(C)C)NC(=O)[C@H](C)NC(=O)[C@H](C)NC(=O)[C@H](CCCCN)NC(=O)CNC(=O)[C@@H](NC(=O)CNC(=O)[C@H](CCCCN)NC(=O)[C@@H](NC(=O)[C@@H](NC(=O)[C@H](CC(=O)O)NC(=O)[C@H](CC(C)C)NC(=O)[C@H](Cc1ccccc1)NC(=O)CN)C(C)C)C(C)C)C(C)C)C(C)C)[C@@H](C)O)C(=O)N[C@@H](CC(N)=O)C(=O)N[C@@H](CCC(N)=O)C(=O)NCC(=O)N[C@@H](CCC(=O)O)C(=O)N[C@@H](CCC(N)=O)C(N)=O` [GFLDVVKGVGKAALGAVTHLINQGEQ], for which the minimum inhibitory concentration (MIC) in [2] was 55.5 µM (≈ 145 µg/mL); in [7] it was 111 µM (≈ 291 µg/mL); in [8], 222 µM (≈ 582 µg/mL).
Turning to `CSCC[C@H](NC(=O)[C@H](CO)NC(=O)[C@H](Cc1ccccc1)NC(=O)[C@@H](NC(=O)[C@H](CO)NC(=O)[C@@H]1CCCN1C(=O)[C@@H](NC(=O)[C@@H](NC(=O)[C@H](CCCCN)NC(=O)[C@H](CO)NC(=O)[C@H](C)NC(=O)[C@H](CC(C)C)NC(=O)[C@H](CO)NC(=O)[C@H](Cc1ccccc1)NC(=O)[C@H](CC(C)C)NC(=O)[C@H](C)N)C(C)C)C(C)C)C(C)C)C(=O)N[C@H](C(=O)N[C@H](C(=O)N[C@@H](CCCCN)C(=O)N[C@@H](CCCCN)C(=O)O)[C@@H](C)O)C(C)C` [ALFSLASKVVPSVFSMVTKK], the minimum inhibitory concentration (MIC) is not below 120 µM in [1] and more than 120 µM in [2].
As for `CC[C@H](C)[C@H](NC(=O)[C@H](CC(C)C)NC(=O)[C@H](CC(C)C)NC(=O)CNC(=O)[C@H](CCCCN)NC(=O)[C@H](CC(C)C)NC(=O)[C@H](CCCCN)NC(=O)[C@@H]1CCCN1C(=O)[C@H](CC(C)C)NC(=O)[C@H](CC(C)C)NC(=O)[C@H](CC(C)C)NC(=O)[C@H](CCCCN)NC(=O)[C@H](CC(C)C)NC(=O)[C@H](CC(C)C)NC(=O)[C@H](CCCCN)NC(=O)[C@@H](N)Cc1ccc(O)cc1)C(=O)N[C@@H](CCCCN)C(=O)N[C@@H](CC(C)C)C(N)=O` [YKLLKLLLPKLKGLLIKL], the values for the minimum inhibitory concentration (MIC) in [10], in [4] and in experiment [6] were 77.6 µM (≈ 164 µg/mL), 9.39 µM (≈ 19.8 µg/mL) and 2.32 µM (≈ 4.9 µg/mL), respectively.
Take `CC[C@H](C)[C@H](NC(=O)CNC(=O)[C@H](CC(N)=O)NC(=O)[C@@H](NC(=O)[C@H](C)NC(=O)[C@H](CC(N)=O)NC(=O)[C@H](CC(C)C)NC(=O)[C@H](C)NC(=O)[C@H](C)NC(=O)[C@H](CCCN=C(N)N)NC(=O)CNC(=O)[C@H](C)NC(=O)[C@H](C)NC(=O)[C@H](C)NC(=O)[C@H](C)NC(=O)[C@H](CCSC)NC(=O)[C@H](CC(=O)O)NC(=O)[C@H](CCCCN)NC(=O)[C@@H](NC(=O)[C@H](CO)NC(=O)[C@H](CO)NC(=O)[C@H](CCCN=C(N)N)NC(=O)[C@H](CC(C)C)NC(=O)[C@@H](N)CO)[C@@H](C)CC)C(C)C)C(=O)N[C@H](C(=O)N[C@@H](CC(N)=O)C(=O)N1CCC[C@H]1C(N)=O)C(C)C` [SLRSSIKDMAAAAGRAALNAVNGIVNP]: the MIC was 96.1 µM (≈ 256 µg/mL) in [3], more than 192 µM in experiment [9], more than 189 µM in experiment [11] and 384 µM (≈ 1020 µg/mL) in experiment [8].
Regarding `CC(C)C[C@H](NC(=O)[C@H](C)NC(=O)[C@H](CC(C)C)NC(=O)[C@H](CC(N)=O)NC(=O)[C@H](CCCCN)NC(=O)[C@H](Cc1ccccc1)NC(=O)[C@@H](NC(=O)[C@H](CC(=O)O)NC(=O)[C@H](CC(C)C)NC(=O)[C@H](Cc1ccccc1)NC(=O)CN)[C@@H](C)O)C(=O)N[C@@H](CC(N)=O)C(=O)N[C@@H](C)C(=O)N[C@@H](C)C(=O)N[C@@H](CCCCN)C(=O)N[C@@H](CO)C(=O)N[C@@H](C)C(=O)NCC(=O)N[C@H](C(=O)N[C@@H](CO)C(=O)N[C@H](C(=O)N[C@@H](CC(C)C)C(=O)N[C@@H](CC(N)=O)C(=O)N[C@@H](CO)C(=O)N[C@@H](CC(C)C)C(=O)N[C@@H](CO)C(=O)N[C@H]1CSSC[C@@H](C(=O)O)NC(=O)[C@H]([C@@H](C)O)NC(=O)[C@H](CCCCN)NC(=O)[C@H](Cc2ccccc2)NC(=O)[C@H](CC(C)C)NC(=O)[C@H](CCCCN)NC1=O)C(C)C)C(C)C` [GFLDTFKNLALNAAKSAGVSVLNSLSCKLFKTC], the minimum inhibitory concentration (MIC) in experiment [2] was 4.71 µM (≈ 16.3 µg/mL); in experiment [7], 2.36 µM (≈ 8.16 µg/mL); in [12] it was 2.36 µM (≈ 8.16 µg/mL); in experiment [8] it was 1.18 µM (≈ 4.08 µg/mL).
For `CC(=O)N[C@@H](CC(C)C)C(=O)N[C@@H](Cc1ccccc1)C(=O)N[C@@H](CCCCN)C(=O)N[C@@H](CCCCN)C(=O)N[C@@H](CC(N)=O)C(=O)N[C@@H](CCCCN)C(=O)N[C@@H](CC(C)C)C(=O)N[C@@H](Cc1c[nH]c2ccccc12)C(=O)N[C@@H](Cc1ccccc1)C(=O)N[C@@H](CCCCN)C(=O)N[C@@H](CO)C(=O)N[C@@H](CCCCN)C(=O)N[C@@H](CCCCN)C(=O)N[C@@H](Cc1c[nH]c2ccccc12)C(=O)N[C@@H](CC(C)C)C(N)=O` [LFKKNKLWFKSKKWL], the minimum inhibitory concentration (MIC) in experiment [3] is 50 µM (≈ 102 µg/mL); in experiment [13] it was 6.4 µM (≈ 13 µg/mL); in experiment [4], 50 µM (≈ 102 µg/mL); in [14] it was 50 µM (≈ 102 µg/mL); in experiment [15], 25 µM (≈ 50.9 µg/mL); in experiment [9] it was 50 µM (≈ 102 µg/mL).
Regarding `CC[C@H](C)[C@H](NC(=O)[C@H](CC(C)C)NC(=O)[C@H](Cc1cnc[nH]1)NC(=O)[C@@H](NC(=O)[C@@H](NC(=O)[C@H](C)NC(=O)CNC(=O)[C@H](CC(C)C)NC(=O)[C@H](C)NC(=O)[C@H](C)NC(=O)[C@H](CCCCN)NC(=O)CNC(=O)[C@@H](NC(=O)CNC(=O)[C@H](CCCCN)NC(=O)[C@H](CC(C)C)NC(=O)[C@@H](NC(=O)[C@H](CC(=O)O)NC(=O)[C@H](CC(C)C)NC(=O)[C@H](Cc1ccccc1)NC(=O)CN)C(C)C)C(C)C)C(C)C)[C@@H](C)O)C(=O)N[C@@H](CC(N)=O)C(=O)N[C@@H](CCC(N)=O)C(=O)NCC(=O)N[C@@H](CCC(=O)O)C(=O)N[C@@H](CCC(N)=O)C(N)=O` [GFLDVLKGVGKAALGAVTHLINQGEQ], the MIC in [2] amounted to 27.5 µM (≈ 72.5 µg/mL); in [7], 27.5 µM (≈ 72.5 µg/mL); in experiment [8] it was 55.1 µM (≈ 145 µg/mL).
